According to paper PMC3615439 (Medicinal chemistry, 2011):

Tests used:
[1] = Lipophilicity by reverse-phase HPLC; type: physicochemical; conditions: aqueous phase pH 7.5, text calls it log k′w
σ1 receptors = σ1 receptors (Cavia porcellus, UniProt Q60492); test: σ1 receptor binding, competition against [3H]; parameters: species or system guinea pig; conditions: for Hill Slope: guinea pig brain membranes, mean ± SEM; for fold lower σ1 receptor affinity than positional isomers: 2-substituted ligand versus its 3- and/or 4-substituted isomers
Sequence of σ1 receptors (Q60492 whole entry): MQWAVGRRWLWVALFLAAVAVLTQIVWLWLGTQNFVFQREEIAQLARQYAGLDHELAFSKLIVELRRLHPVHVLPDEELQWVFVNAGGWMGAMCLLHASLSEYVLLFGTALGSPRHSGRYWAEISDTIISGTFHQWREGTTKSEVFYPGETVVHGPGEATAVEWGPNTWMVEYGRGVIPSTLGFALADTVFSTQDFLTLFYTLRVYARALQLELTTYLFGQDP

SMILES	k′w [1]	IC50 (σ1 receptors) [nM]	Ki (σ1 receptors) [nM]	Hill Slope (σ1 receptors)	fold lower σ1 receptor affinity than positional isomers (σ1 receptors) [fold]	fold poorer Ki value than compounds 6 or 9 (σ1 receptors; 4-iodo versus 4-fluoro or 4-bromo derivative) [fold]
Clc1ccc(CCNCCNCCc2ccc(Br)cc2)cc1Cl [Compound 9, N-[2-(4-Bromophenyl)-ethyl]-N′-[2-(3,4-dichlorophenyl)-ethyl]-ethane-1,2-diamine]	3.31 ± 0.08	9.85 ± 3.92	6.8 ± 2.71	−1.00 ± 0.02		
Clc1ccc(CCNCCNCCc2ccccc2I)cc1Cl [Compound 10, N-[2-(3,4-Dichlorophenyl)-ethyl]-N′-[2-(2-iodophenyl)-ethyl]-ethane-1,2-diamine]		62.5 ± 0.96	43.2 ± 0.66	−1.12 ± 0.03	2.7	
Clc1ccc(CCNCCNCCc2ccc(I)cc2)cc1Cl [Compound 11, N-[2-(3,4-Dichlorophenyl)-ethyl]-N′-[2-(4-iodophenyl)-ethyl]-ethane-1,2-diamine]	3.71 ± 0.05	22.9 ± 0.94	15.8 ± 0.65	−1.59 ± 0.08		2
Fc1ccccc1CCNCCNCCc1ccc(Cl)c(Cl)c1 [Compound 4, N-[2-(3,4-Dichlorophenyl)-ethyl]-N′-[2-(2-fluorophenyl)-ethyl]-ethane-1,2-diamine]		17.5 ± 0.31	12.1 ± 0.22	−1.07 ± 0.01	1.5	
Clc1ccc(CCNCCNCCc2ccccc2Br)cc1Cl [Compound 7, N-[2-(2-Bromophenyl)-ethyl]-N′-[2-(3,4-dichlorophenyl)-ethyl]-ethane-1,2-diamine]	3.09 ± 0.05	26.6 ± 3.95	18.4 ± 2.73	−0.78 ± 0.03	2.7	
Fc1ccc(CCNCCNCCc2ccc(Cl)c(Cl)c2)cc1 [Compound 6, N-[2-(3,4-Dichlorophenyl)-ethyl]-N′-[2-(4-fluorophenyl)-ethyl]-ethane-1,2-diamine]	2.54 ± 0.05	11.3 ± 2.02	7.83 ± 1.39	−1.21 ± 0.05		
Clc1ccc(CCNCCNCCc2cccc(Br)c2)cc1Cl [Compound 8, N-[2-(3-Bromophenyl)-ethyl]-N′-[2-(3,4-dichlorophenyl)-ethyl]-ethane-1,2-diamine]	3.06 ± 0.07	9.14 ± 0.85	6.35 ± 0.59	−1.02 ± 0.15		
Fc1cccc(CCNCCNCCc2ccc(Cl)c(Cl)c2)c1 [Compound 5, N-[2-(3,4-Dichlorophenyl)-ethyl]-N′-[2-(3-fluorophenyl)-ethyl]-ethane-1,2-diamine]	2.54	11.2 ± 1.29	7.74 ± 0.89	−1.13 ± 0.09		
